From ChEMBL document CHEMBL1201862, “PubChem BioAssay data set” (2004)
Active and inactive are the calls of the source.

Columns and labels:
[1] = molecular target: T1, Short transient receptor potential channel 4 (Mus musculus, UniProt Q9QUQ5); assay: mouse TRPC4 channel inhibitors, dose response, cell-based, HEK293 TRPC4/mu-opioid, Fluo-4 calcium (AID 434942); assay type: functional;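 further: potency of inhibitors blocking the TRPC4 calcium response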
T1 sequence (Q9QUQ5 whole entry): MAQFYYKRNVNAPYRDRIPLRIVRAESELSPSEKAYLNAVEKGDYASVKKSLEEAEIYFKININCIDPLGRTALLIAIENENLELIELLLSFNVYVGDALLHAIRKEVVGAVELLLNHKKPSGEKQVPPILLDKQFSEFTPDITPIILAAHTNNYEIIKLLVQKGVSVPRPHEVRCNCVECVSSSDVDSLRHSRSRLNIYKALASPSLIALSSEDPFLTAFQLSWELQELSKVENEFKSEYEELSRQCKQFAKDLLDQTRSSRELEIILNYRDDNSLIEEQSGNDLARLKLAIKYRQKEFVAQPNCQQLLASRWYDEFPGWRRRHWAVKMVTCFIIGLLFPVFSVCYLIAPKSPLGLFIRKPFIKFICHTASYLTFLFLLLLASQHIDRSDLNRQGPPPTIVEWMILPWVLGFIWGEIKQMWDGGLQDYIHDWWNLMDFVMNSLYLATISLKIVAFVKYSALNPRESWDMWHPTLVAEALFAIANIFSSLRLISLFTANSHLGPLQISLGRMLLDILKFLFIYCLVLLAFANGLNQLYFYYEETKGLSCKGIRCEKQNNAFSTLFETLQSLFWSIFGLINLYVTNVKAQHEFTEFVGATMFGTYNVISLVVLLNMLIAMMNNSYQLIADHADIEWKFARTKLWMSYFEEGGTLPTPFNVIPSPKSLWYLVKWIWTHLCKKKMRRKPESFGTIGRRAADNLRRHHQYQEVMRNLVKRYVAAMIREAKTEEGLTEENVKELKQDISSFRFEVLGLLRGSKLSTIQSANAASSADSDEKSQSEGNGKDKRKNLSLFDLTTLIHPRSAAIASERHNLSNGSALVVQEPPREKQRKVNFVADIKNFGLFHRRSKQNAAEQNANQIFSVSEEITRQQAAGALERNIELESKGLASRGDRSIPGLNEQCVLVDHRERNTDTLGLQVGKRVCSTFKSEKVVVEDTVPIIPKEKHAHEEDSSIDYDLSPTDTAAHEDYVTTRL

[2] = molecular target: T2, DNA repair and recombination protein RAD54-like (Homo sapiens, UniProt Q92698); assay: inhibitors of human RAD54 branch migration, confirmation, biochemical, fluorescence, cherry-picked samples, dose series (AID 651657); assay type: functional
T2 sequence (Q92698 whole entry): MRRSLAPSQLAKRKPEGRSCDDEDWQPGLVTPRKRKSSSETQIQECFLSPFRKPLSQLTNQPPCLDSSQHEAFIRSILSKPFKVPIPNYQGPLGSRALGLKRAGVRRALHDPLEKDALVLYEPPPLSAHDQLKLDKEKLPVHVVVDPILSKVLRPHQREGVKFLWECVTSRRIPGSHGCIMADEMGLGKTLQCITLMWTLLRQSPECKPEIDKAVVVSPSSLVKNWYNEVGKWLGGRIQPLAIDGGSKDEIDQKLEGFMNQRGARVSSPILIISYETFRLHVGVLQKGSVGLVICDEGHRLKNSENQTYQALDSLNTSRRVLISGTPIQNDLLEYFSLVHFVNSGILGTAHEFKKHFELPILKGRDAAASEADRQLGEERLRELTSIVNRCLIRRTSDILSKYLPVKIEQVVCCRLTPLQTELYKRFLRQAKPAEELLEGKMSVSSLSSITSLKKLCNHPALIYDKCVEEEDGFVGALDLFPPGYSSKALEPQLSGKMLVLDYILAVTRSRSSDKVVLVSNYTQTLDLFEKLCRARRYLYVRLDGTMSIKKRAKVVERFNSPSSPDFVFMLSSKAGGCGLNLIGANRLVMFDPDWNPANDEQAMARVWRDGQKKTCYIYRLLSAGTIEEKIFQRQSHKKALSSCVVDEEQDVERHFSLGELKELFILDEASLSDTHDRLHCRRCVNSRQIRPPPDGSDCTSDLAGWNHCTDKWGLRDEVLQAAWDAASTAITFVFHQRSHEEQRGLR

[3] = molecular target: T3, Corticotropin-releasing factor receptor 2/Corticotropin-releasing factor-binding protein (Homo sapiens, UniProt P24387+Q13324); assay: activators of CRF receptor 2 with binding protein – uHTS hits, confirmation (AID 602473); assay type: functional; conditions: read-out: EC50_Mean
T3 sequence (Q13324 whole entry): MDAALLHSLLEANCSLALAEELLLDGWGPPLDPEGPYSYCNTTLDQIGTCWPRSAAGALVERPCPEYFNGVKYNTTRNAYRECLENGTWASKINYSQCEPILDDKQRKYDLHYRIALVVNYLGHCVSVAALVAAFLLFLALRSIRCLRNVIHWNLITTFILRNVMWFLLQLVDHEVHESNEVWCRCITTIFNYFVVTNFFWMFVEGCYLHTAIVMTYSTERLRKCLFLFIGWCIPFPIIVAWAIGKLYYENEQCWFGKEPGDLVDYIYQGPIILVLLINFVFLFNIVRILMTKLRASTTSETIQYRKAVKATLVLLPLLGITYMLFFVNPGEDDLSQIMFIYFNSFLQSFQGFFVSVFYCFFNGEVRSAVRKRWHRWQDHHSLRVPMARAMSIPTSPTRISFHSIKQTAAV
T3 sequence (P24387 whole entry): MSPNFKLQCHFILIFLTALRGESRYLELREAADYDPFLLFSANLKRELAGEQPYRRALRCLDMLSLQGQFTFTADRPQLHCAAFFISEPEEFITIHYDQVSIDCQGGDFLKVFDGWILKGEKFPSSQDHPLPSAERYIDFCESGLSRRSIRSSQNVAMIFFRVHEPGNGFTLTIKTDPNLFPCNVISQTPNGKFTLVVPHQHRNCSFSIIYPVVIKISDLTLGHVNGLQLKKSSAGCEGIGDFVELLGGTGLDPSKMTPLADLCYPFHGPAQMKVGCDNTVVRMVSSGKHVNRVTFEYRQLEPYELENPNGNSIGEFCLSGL

[4] = molecular target: T3, Corticotropin-releasing factor receptor 2/Corticotropin-releasing factor-binding protein; assay: Dose Response confirmation of uHTS hits for small molecule antagonists of the CRF-binding protein and CRF-R2 receptor complex.; assay type: functional; conditions: read-out: IC50_Mean
[5] = HEK293T cell cytotoxicity, dose response, cytotoxicity control for HIV Vif inhibitor project, cherry-picks (AID 652208); assay type: functional, cell-based
[6] = molecular target: T4, Rac GTPase-activating protein 1 (Homo sapiens, UniProt Q9H0H5); assay: MgcRacGAP GTPase-activating activity inhibitors, confirmation, biochemical, ADP Hunter fluorescence, primary and confirmatory (AID 624330); assay type: functional
T4 sequence (Q9H0H5 whole entry): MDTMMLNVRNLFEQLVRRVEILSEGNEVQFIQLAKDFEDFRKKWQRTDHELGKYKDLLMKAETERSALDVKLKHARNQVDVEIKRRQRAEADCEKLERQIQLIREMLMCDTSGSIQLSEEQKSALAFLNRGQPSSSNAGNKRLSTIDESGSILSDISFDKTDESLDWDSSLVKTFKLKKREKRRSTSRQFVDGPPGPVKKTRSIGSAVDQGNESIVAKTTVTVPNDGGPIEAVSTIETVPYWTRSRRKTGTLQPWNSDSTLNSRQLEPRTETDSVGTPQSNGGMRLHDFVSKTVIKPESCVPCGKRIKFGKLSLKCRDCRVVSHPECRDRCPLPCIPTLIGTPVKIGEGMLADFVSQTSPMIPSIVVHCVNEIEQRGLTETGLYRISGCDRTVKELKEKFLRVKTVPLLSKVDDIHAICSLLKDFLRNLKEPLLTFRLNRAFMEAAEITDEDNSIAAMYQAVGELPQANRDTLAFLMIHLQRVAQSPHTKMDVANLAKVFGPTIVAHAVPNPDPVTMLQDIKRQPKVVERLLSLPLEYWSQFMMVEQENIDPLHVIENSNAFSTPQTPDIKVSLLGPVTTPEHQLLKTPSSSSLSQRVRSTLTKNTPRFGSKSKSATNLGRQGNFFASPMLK

[7] = molecular target: T5, Histone-lysine N-methyltransferase NSD2 (Homo sapiens, UniProt O96028); assay type: biochemical
T5 sequence (O96028 whole entry): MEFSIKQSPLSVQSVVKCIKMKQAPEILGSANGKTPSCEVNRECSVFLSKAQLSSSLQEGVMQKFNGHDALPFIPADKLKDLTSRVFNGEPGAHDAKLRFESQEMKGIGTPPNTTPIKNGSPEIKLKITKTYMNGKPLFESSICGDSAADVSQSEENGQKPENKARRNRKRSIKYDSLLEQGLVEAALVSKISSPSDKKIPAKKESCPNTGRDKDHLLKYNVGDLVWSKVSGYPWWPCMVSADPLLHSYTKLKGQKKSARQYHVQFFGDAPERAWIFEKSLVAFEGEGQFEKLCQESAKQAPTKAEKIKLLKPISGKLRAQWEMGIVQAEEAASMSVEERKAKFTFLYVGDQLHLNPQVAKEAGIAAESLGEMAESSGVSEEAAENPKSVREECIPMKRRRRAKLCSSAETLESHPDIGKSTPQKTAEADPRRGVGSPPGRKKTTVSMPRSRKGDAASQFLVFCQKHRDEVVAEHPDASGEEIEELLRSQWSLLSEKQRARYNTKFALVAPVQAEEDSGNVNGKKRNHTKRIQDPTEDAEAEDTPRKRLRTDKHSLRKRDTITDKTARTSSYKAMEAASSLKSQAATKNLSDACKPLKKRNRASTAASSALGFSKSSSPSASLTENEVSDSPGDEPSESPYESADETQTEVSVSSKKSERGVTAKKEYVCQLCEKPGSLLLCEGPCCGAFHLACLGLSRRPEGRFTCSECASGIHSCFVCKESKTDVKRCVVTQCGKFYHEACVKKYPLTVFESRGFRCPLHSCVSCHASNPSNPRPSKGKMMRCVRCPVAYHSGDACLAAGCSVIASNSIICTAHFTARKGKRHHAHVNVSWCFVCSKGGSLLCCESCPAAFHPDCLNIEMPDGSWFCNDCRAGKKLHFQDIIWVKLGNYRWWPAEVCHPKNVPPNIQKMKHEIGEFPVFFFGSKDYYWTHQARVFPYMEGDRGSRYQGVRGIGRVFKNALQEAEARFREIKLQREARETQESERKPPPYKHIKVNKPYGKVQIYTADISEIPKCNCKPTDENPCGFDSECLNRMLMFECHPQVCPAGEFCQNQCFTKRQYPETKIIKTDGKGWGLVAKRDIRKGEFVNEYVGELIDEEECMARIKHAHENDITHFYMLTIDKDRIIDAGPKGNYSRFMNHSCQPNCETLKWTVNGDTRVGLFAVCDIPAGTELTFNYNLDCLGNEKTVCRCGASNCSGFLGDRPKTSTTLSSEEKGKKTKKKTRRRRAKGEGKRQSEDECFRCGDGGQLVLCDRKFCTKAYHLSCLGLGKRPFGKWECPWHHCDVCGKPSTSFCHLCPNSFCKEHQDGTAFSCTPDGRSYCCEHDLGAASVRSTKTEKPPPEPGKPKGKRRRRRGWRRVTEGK

Albumin = Albumin (Bos taurus, UniProt P02769); assay: Counterscreen for inhibitors of T-cell receptor (TCR)-CD3 interaction: Fluorescence-based biochemical high throughput dose response assay to identify inhibitors of T-cell receptor (TCR)-CD3 interaction using a TAMRA-labeled BSA probe.; assay type: functional
Chain of Albumin (P02769 whole entry): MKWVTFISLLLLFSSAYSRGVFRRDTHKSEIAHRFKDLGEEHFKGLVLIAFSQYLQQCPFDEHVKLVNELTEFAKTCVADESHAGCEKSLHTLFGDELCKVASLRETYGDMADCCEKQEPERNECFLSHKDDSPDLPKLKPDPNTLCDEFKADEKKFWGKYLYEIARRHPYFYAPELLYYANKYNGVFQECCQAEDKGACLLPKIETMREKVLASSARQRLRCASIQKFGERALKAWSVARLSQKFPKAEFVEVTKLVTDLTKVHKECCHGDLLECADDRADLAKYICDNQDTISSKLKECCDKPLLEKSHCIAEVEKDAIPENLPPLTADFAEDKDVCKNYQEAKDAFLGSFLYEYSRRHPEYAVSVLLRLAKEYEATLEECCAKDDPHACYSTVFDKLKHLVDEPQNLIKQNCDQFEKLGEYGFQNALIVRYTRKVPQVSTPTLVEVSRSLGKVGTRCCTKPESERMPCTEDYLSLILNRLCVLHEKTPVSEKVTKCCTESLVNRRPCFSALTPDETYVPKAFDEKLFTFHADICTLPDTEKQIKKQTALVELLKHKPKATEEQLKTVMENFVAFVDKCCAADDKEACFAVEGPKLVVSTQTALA

[8] = T. cruzi growth inhibition in host cells, dose response, cell-based, plate reader, dry powder, set 2 (AID 652275); assay type: functional

## Cc1ccc2nc(C)cc(Nc3ccc4c(c3)OCCO4)c2c1
[1]
  EC50: 2.99 µM (active)
[2]
  AC50: 37.2 µM (active)

## Cc1ccc(-c2cc(C(=O)NCc3ccccn3)c3ccccc3n2)cc1C
[3]
  EC50: > 53 µM (inactive)
[4]
  IC50: > 47.1 µM (inactive)
[5]
  AC50: 32.7 µM (active)

## O=C(COc1ccc(-n2cnnn2)cc1)Nc1cc(Cl)cc(Cl)c1
[5]
  AC50: 18.1 µM (active)

## CN(C)C=O.O=C(O)c1ccccc1NS(=O)(=O)c1ccc(N/N=C/c2ccc(O)c(O)c2)c([N+](=O)[O-])c1
[6]
  IC50: 60.7 µM (active)
[7]
  AC50: 1.71 µM (active)
Albumin
  IC50: > 94.1 µM (inactive)

## COC[C@H](C)N1C[C@H](C)[C@@H](CN(C)Cc2ccc(Cl)cc2)Oc2c(NC(=O)c3ccncc3)cccc2C1=O
[8]
  AC50: 0.00139 µM (active)

## COCC(=O)N1CCCCN2[C@@H](CO)[C@H](c3ccc(-c4cccc(C)c4)cc3)[C@@H]2C1
[8]
  AC50: 1.42 µM (active)

## O=C(c1ccncc1)N1CCCCN2[C@@H](CO)[C@H](c3ccc(-c4ccccc4)cc3)[C@@H]2C1
[8]
  AC50: 4.5 µM (active)
